Assays:
[1] = test system: Mouse adipocytes (3T3-L1); assay: Adipocyte differentiation, oil-red O staining; type: cell-based; conditions: 3T3-L1 co-treated with DMI, 8 days, FIG. 6
Protocol: Mouse adipocytes (3T3-L1) were co-treated with DMI (5 μM of dexamethasone, 0.5 mM of 3-isobutyl-1-methylxanthine, and 0.1724 mM of insulin) and different chemicals. After being cultured for 8 days, the cell media was removed and oil-red O staining was used to analyze these adipocytes' differentiation.

[2] = test system: Male C57BL/6 mice on high-fat diet; assay: High-fat diet mice: body, liver and white adipocytes tissue weights; type: in vivo, mouse; conditions: HFD mice, gavage 100 mg/kg, end of treatment
Protocol: (§1) Male C57BL/6 mice (8 weeks old) were purchased from the National Laboratory Animal Center. Mice were divided into three groups (n=6 each group): chow diet; high-fat diet (HFD, 60% ResearchDiet, D12492); and HFD gavage with corylin at 100 mg/kg. To compare the metabolic effects of corylin, parameters such as body weights, liver weights and white adipocytes tissue (WAT) weights from epididymal, inguinal and axilla subcutaneous were measured at the end of the treatment.

ICAM-1 expression = assay: Lipopolysaccharide-induced ICAM-1 expression by Western blotting in HASMC; type: cell-based, human; conditions: corylin 24 hours then lipopolysaccharide 24 hours, FIG. 8
Protocol: Lipopolysaccharide can induce immune response on blood vessels. During immune response, blood vessels can also overexpress ICAM-1, which is one cause of cardiovascular disease. To mimic this disease, human aortic smooth muscle cells (HASMC) were treated with corylin in different concentrations and then cultured for 24 hours. After these cells were treated with lipopolysaccharide for 24 hours, the protein in these cells was extracted and analyzed by Western blotting assay.

yeast cells = assay: Replicative life span of yeast cells (passage number); type: cell-based; conditions: YEPD media, 30° C.; FIG. 2
Protocol: A yeast colony was selected and cultured in a YEPD culture media. When the OD value of the media was at 0.6-0.8, 20 μl of the media containing different chemicals was added to a YEPD solid media, and then 20-30 yeast cells were selected using a tetrad dissection microscope manipulation system. The selected yeast cells were cultured at 30° C. for 3-5 hours to divide into first generation yeast cells. Afterwards, the first generation yeast cells were cultured at 30° C. for 3-5 hours to divide into second generation yeast cells. The culturing step was repeated until final generation yeast cells which cannot divide anymore existed. Finally, the yeast cells' passage number was counted according to the total division number.

[3] = test system: Male C57BL/6 mice on high-fat diet; assay: Intraperitoneal glucose tolerance testing in mice; type: in vivo, mouse; conditions: mice fasted 16 hours, 2 g/kg glucose, 0-120 min; FIG. 12
Protocol: as §1, with “treatment. […] For intraperitoneal glucose tolerance testing, mice were fasted for 16 hours and then injected with 2 g/kg of glucose solution. For insulin tolerance testing, mice were fasted for 3 hours and then injected with 1.2 U/kg insulin. Serum blood glucose levels were measured at 0, 15, 30, 60, 90, and 120 min after glucose and insulin injection.” for “treatment.”

[4] = test system: S6K phosphorylation caused by insulin; assay: Insulin-induced S6K phosphorylation by Western blotting; type: cell-based; conditions: human osteosarcoma cells, 400 nM insulin, 10 minutes; FIG. 7
Protocol: High concentration insulin can cause phosphorylation and thus cells are resistant to insulin, which is one cause for type II diabetes. In order to mimic type II diabetes, human osteosarcoma cells were cultured in 400 nM of insulin and different chemicals for 10 minutes. After which, Western blotting assay was used to analyze the protein in these cells.

[5] = test system: human umbilical vein endothelial cells (HUVEC); assay: SA-βgal cellular aging assay in HUVEC; type: cell-based; conditions: corylin in different concentrations, successive generations, FIG. 3
Protocol: In addition, human umbilical vein endothelial cells (HUVEC) were treated with corylin in different concentrations, and the cells at this moment were called first generation cells. Second generation cells grew by culturing the first generation cells for 2-3 days, and then the second generation cells were treated with corylin in different concentrations. Third to Nth generation cells grew by repeating the culturing process. During each culture process, SA-βgal assay was used to analyze the responding generation cells. The more SA-βgal positive cells the cultured cells contained, the older the cultured cells were.

S6K phosphorylation = S6K phosphorylation by Western blotting in U2OS cells; type: cell-based, human; conditions: 8 hours
Protocol: Human osteosarcoma (U2OS) cells were treated with different chemicals in different concentrations. After the cells were cultured for 8 hours, the protein therein was extracted. Finally, Western blotting assay was used to analyze the extracted protein. […] Moreover, human osteosarcoma cells were pre-treated with mammalian SIRT1 inhibitor EX-527 for 1 hour. Afterwards, those cells were treated with 100 μM corylin and cultured for 8 hours. Finally, Western blotting assay was used to analyze the protein extracted from those cells.

[6] = test system: Male C57BL/6 mice on high-fat diet; assay: Insulin tolerance testing in mice; type: in vivo, mouse; conditions: mice fasted 3 hours, 1.2 U/kg insulin, 0-120 min; FIG. 13
Protocol: as §1, with “treatment. […] For intraperitoneal glucose tolerance testing, mice were fasted for 16 hours and then injected with 2 g/kg of glucose solution. For insulin tolerance testing, mice were fasted for 3 hours and then injected with 1.2 U/kg insulin. Serum blood glucose levels were measured at 0, 15, 30, 60, 90, and 120 min after glucose and insulin injection.” for “treatment.”

| Compound | inhibition of adipocytes' differentiation [1] | body weight ([2]; FIG. 9) | liver weight ([2]; FIG. 10) | ICAM-1 expression caused by lipopolysaccharide (ICAM-1 expression) | yeast cells' passage number (replicative life span) (yeast cells) | intraperitoneal glucose tolerance (serum blood glucose) [3] | S6K phosphorylation caused by insulin [4] | cells' aging (SA-βgal positive cells) [5] | interference of SIRT1 inhibitor EX-527 with corylin's effect on S6K phosphorylation (S6K phosphorylation; U2OS cells pre-treated with EX-527 for 1 hour, then 100 μM corylin, FIG. 5) | S6K phosphorylation (S6K phosphorylation; U2OS cells, different concentrations, FIG. 4) | insulin tolerance (serum blood glucose) [6] |
| --- | --- | --- | --- | --- | --- | --- | --- | --- | --- | --- | --- |
| Oc1ccc(C=Cc2cc(O)cc(O)c2)cc1 [resveratrol, reference compound] | inhibition of adipocytes' differentiation |  |  |  |  |  |  |  |  |  |  |
| corylin | more obvious than that caused by resveratrol | has an effect on the reduction of body weight | has an effect on the reduction of | can inhibit ICAM-1 expression caused by lipopolysaccharide | can increase yeast cells' passage number | can lower intraperitoneal glucose tolerance | can suppress such phosphorylation caused by insulin | can inhibit the cells' aging in dose-dependent manner | cannot interfere with the S6K phosphorylation caused by corylin | can suppress S6K phosphorylation in dose-dependent manner | can lower |
